Results from patent publication US11208387B2, “Macrocyclic broad spectrum antibiotics” (Genentech, Inc., priority 2019, dated 2021).
≈ marks a conversion by molar mass, not a printed value. Where two headings read alike, the source gives them in different places.

Experiments:
Experiment in all cases: Serum MIC, broth micro-dilution
Type in all cases: cell-based
[1] = tested on: Pseudomonas aeruginosa PA01; conditions: Pseudomonas aeruginosa, read-out: P. aeruginosa 01 Serum MIC
Method in brief: (§1)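 MIC read after 22 h at 35° C by CLSI broth micro-dilution, with medium containing 50% v/v mouse serum in cation-adjusted Mueller Hinton II broth. Ten 2-fold compound concentrations were tested, starting at 64, 4, 0.5 or 0.13 μg/mL.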

[2] = tested on: Escherichia coli strain ATCC 25922; conditions: Escherichia coli, read-out: E. coli 25922 Serum MIC
Method in brief: as §1

[3] = tested on: Klebsiella pneumoniae ATCC 700603; conditions: Klebsiella pneumoniae
Method in brief: as §1

[4] = tested on: Acinetobacter baumannii ATCC 17978; conditions: Acinetobacter baumannii
Method in brief: as §1

[5] = PA01, 50% v/v mouse serum in Mueller Hinton II cation adjusted Broth, 35° C., 22 hours, Table 4
[6] = ATCC25922, 50% v/v mouse serum in Mueller Hinton II cation adjusted Broth, 35° C., 22 hours, Table 4
[7] = ATCC700603, 50% v/v mouse serum in Mueller Hinton II cation adjusted Broth, 35° C., 22 hours, Table 4, read-out: K pneumoniae 700603 Serum MIC
[8] = ATCC17978, 50% v/v mouse serum in Mueller Hinton II cation adjusted Broth, 35° C., 22 hours, Table 4, read-out: A. baumanii 17978 Serum MIC
[9] = ATCC17978, 50% v/v mouse serum in Mueller Hinton II cation adjusted Broth, 35° C., 22 hours, Table 5, read-out: Acinetobacter baumanii 17978 Serum MIC

Structure (SMILES) | MIC [1, 5] | MIC [2, 6] | MIC [3, 7] | MIC [4, 8] | MIC [4, 9] | MIC ([1]; PA01, 50% v/v mouse serum, compounds of Table 1, Table 7) | MIC ([2]; ATCC25922, 50% v/v mouse serum, compounds of Table 1, Table 7) | MIC ([3]; ATCC700603, 50% v/v mouse serum, compounds of Table 1, Table 7, read-out: K. pneumoniae 700603 Serum MIC) | MIC ([4]; ATCC17978, 50% v/v mouse serum, compounds of Table 1, Table 7, read-out: A. baumanii 17978 Serum MIC) | MIC ([1]; PA01, 22 h) | MIC ([2]; ATCC25922, 22 h) | MIC ([3]; ATCC700603, 22 h, read-out: K pneumoniae 700603 Serum MIC) | MIC ([4]; ATCC17978, 22 h, read-out: A. baumanii 17978 Serum MIC) | MIC ([4]; ATCC17978, 22 h, read-out: Acinetobacter baumanii 17978 Serum MIC)
C[C@@H]1NC(=O)[C@@H](N(C)C(=O)[C@H](CCN)NC(=O)c2cnn(-c3ccc(OC4CCCCC4)cc3)c(=O)c2)c2cc(OC[C@H](O)CN)c(O)c(c2)-c2cc(ccc2OC[C@H](O)CN)C[C@@H](C(=O)O)NC1=O [Example 26, (8S,11S,14S)-18-hydroxy-11-methyl-14-[methyl-[(2S)-4-amino-2-[[1-[4-(cyclohexoxy)phenyl]-6-oxo-pyridazine-4-carbonyl]amino]-butanoyl]amino]-10,13-dioxo-3,17-bis[(2R)-3-amino-2-hydroxy-propoxy]-9,12-diazatricyclo-[13.3.1.12,6]icosa-1(18),2(20),3,5,15(19), 16-hexaene-8-carboxylic acid] | 64 µM (≈ 62.2 µg/mL) | 1 µM (≈ 0.972 µg/mL) | 0.75 µM (≈ 0.729 µg/mL) | 24 µM (≈ 23.3 µg/mL) | 24 µM (≈ 23.3 µg/mL) | – | – | – | – | – | – | – | – | –
Cc1nc(-c2ccc(C3(C)CC3)cc2)nc(N)c1C(=O)N[C@@H](CCN)C(=O)N(C)[C@@H]1C(=O)N[C@@H](C)C(=O)N[C@H](C(=O)O)Cc2ccc(OC[C@H](O)CN)c(c2)-c2cc1cc(OC[C@H](O)CN)c2O [Example 21] | 48 µM (≈ 45.2 µg/mL) | 0.38 µM (≈ 0.358 µg/mL) | 0.25 µM (≈ 0.235 µg/mL) | 16 µM (≈ 15.1 µg/mL) | 16 µM (≈ 15.1 µg/mL) | – | – | – | – | – | – | – | – | –
Cc1nc(-c2ccc(C3(C)CC3)cc2)nc(C)c1C(=O)N[C@@H](CNS(N)(=O)=O)C(=O)N(C)[C@@H]1C(=O)N[C@@H](C)C(=O)N[C@H](C(=O)O)Cc2ccc(OC[C@H](O)CN)c(c2)-c2cc1cc(OC[C@H](O)CN)c2O [Example 15, (8S,11S,14S)-18-hydroxy-11-methyl-14-[methyl-[(2S)-2-[[4,6-dimethyl-2-[4-(1-methylcyclo-propyl)phenyl]-pyrimidine-5-carbonyl]amino]-3-(sulfamoylamino)-propanoyl]amino]-10,13-dioxo-3,17-bis[(2R)-3-amino-2-hydroxy-propoxy]-9,12-diazatricyclo-[13.3.1.12,6]icosa-1(18),2(20),3,5,15(19), 16-hexaene-8-carboxylic acid] | 8 µM (≈ 8.04 µg/mL) | 0.5 µM (≈ 0.503 µg/mL) | 0.5 µM (≈ 0.503 µg/mL) | 8 µM (≈ 8.04 µg/mL) | 8 µM (≈ 8.04 µg/mL) | – | – | – | – | – | – | – | – | –
Cc1nc(N2CCC(C(C)(C)C)CC2)nc(N)c1C(=O)N[C@@H](CCN)C(=O)N(C)[C@@H]1C(=O)N[C@@H](C)C(=O)N[C@H](C(=O)O)Cc2ccc(OC[C@H](O)CN)c(c2)-c2cc1cc(OC[C@H](O)CN)c2O [Example 25, (8S,11S,14S)-18-hydroxy-11-methyl-14-[methyl-[(2S)-4-amino-2-[[4-amino-2-(4-tert-butyl-1-piperidyl)-6-methyl-pyrimidine-5-carbonyl]amino]-butanoyl]amino]-10,13-dioxo-3,17-bis[(2R)-3-amino-2-hydroxy-propoxy]-9,12-diazatricyclo-[13.3.1.12,6]icosa-1(18),2(20),3,5,15(19), 16-hexaene-8-carboxylic acid] | 64 µM (≈ 60.8 µg/mL) | 1 µM (≈ 0.95 µg/mL) | 0.5 µM (≈ 0.475 µg/mL) | 16 µM (≈ 15.2 µg/mL) | 16 µM (≈ 15.2 µg/mL) | – | – | – | – | – | – | – | – | –
Cc1nc(-c2ccc(OC(C)C)cc2)ncc1C(=O)N[C@@H](CNS(N)(=O)=O)C(=O)N(C)[C@@H]1C(=O)N[C@@H](C)C(=O)N[C@H](C(=O)O)Cc2ccc(OC[C@H](O)CN)c(c2)-c2cc1cc(OC[C@H](O)CN)c2O [Example 14, (8S,11S,14S)-18-hydroxy-11-methyl-14-[methyl-[(2S)-2-[[2-(4-isopropoxy-phenyl)-4-methyl-pyrimidine-5-carbonyl]amino]-3-(sulfamoylamino)-propanoyl]amino]-10,13-dioxo-3,17-bis[(2R)-3-amino-2-hydroxy-propoxy]-9,12-diazatricyclo-[13.3.1.12,6]icosa-1(18),2(20),3,5,15(19), 16-hexaene-8-carboxylic acid] | – | – | – | – | – | – | – | – | – | 48 µM (≈ 47.8 µg/mL) | 1.5 µM (≈ 1.49 µg/mL) | 2 µM (≈ 1.99 µg/mL) | 32 µM (≈ 31.8 µg/mL) | 32 µM (≈ 31.8 µg/mL)
Cc1nc(N2CCC(C(C)(C)C)CC2)nc(N)c1C(=O)N[C@@H](CNS(N)(=O)=O)C(=O)N(C)[C@@H]1C(=O)N[C@@H](C)C(=O)N[C@H](C(=O)O)Cc2ccc(OC[C@H](O)CN)c(c2)-c2cc1cc(OC[C@H](O)CN)c2O [Example 12, (8S,11S,14S)-18-hydroxy-11-methyl-14-[methyl-[(2S)-2-[[4-amino-2-(4-tert-butyl-1-piperidyl)-6-methyl-pyrimidine-5-carbonyl]amino]-3-(sulfamoylamino)-propanoyl]amino]-10,13-dioxo-3,17-bis[(2R)-3-amino-2-hydroxy-propoxy]-9,12-diazatricyclo-[13.3.1.12,6]icosa-1(18),2(20),3,5,15(19), 16-hexaene-8-carboxylic acid] | 16 µM (≈ 16.2 µg/mL) | 2 µM (≈ 2.03 µg/mL) | 3 µM (≈ 3.05 µg/mL) | 16 µM (≈ 16.2 µg/mL) | 16 µM (≈ 16.2 µg/mL) | – | – | – | – | – | – | – | – | –

Now from value to molecule, other results behind:

MIC [1, 5] | MIC [2, 6] | MIC [3, 7] | MIC [4, 8] | MIC [4, 9] | MIC ([1]; PA01, 50% v/v mouse serum, compounds of Table 1, Table 7) | MIC ([2]; ATCC25922, 50% v/v mouse serum, compounds of Table 1, Table 7) | MIC ([3]; ATCC700603, 50% v/v mouse serum, compounds of Table 1, Table 7, read-out: K. pneumoniae 700603 Serum MIC) | MIC ([4]; ATCC17978, 50% v/v mouse serum, compounds of Table 1, Table 7, read-out: A. baumanii 17978 Serum MIC) | Structure (SMILES) | MIC ([1]; PA01, 22 h) | MIC ([2]; ATCC25922, 22 h) | MIC ([3]; ATCC700603, 22 h, read-out: K pneumoniae 700603 Serum MIC) | MIC ([4]; ATCC17978, 22 h, read-out: A. baumanii 17978 Serum MIC) | MIC ([4]; ATCC17978, 22 h, read-out: Acinetobacter baumanii 17978 Serum MIC)
8 µM (≈ 8.27 µg/mL) | 1.5 µM (≈ 1.55 µg/mL) | 2 µM (≈ 2.07 µg/mL) | 24 µM (≈ 24.8 µg/mL) | 24 µM (≈ 24.8 µg/mL) | – | – | – | – | Cc1nc(-c2ccc(C(C)(C)C)cc2C#N)nc(N)c1C(=O)N[C@@H](CNS(N)(=O)=O)C(=O)N(C)[C@@H]1C(=O)N[C@@H](C)C(=O)N[C@H](C(=O)O)Cc2ccc(OC[C@H](O)CN)c(c2)-c2cc1cc(OC[C@H](O)CN)c2O [Example 39, (8S,11S,14S)-14-[[(2S)-2-[[4-amino-2-(4-tert-butyl-2-cyano-phenyl)-6-methyl-pyrimidine-5-carbonyl]amino]-3-(sulfamoylamino)-propanoyl]-methyl-amino]-3,17-bis[(2R)-3-amino-2-hydroxy-propoxy]-18-hydroxy-11-methyl-10,13-dioxo-9,12-diazatri-cyclo[13.3.1.12,6]icosa-1(18),2(20),3,5,15(19), 16-hexaene-8-carboxylic acid] | – | – | – | – | –
16 µM (≈ 16.3 µg/mL) | 1 µM (≈ 1.02 µg/mL) | 0.5 µM (≈ 0.511 µg/mL) | 16 µM (≈ 16.3 µg/mL) | 16 µM (≈ 16.3 µg/mL) | – | – | – | – | Cc1nc(-c2ccc(C(C)(C)C)cc2)cc(CN)c1C(=O)N[C@@H](CNS(N)(=O)=O)C(=O)N(C)[C@@H]1C(=O)N[C@@H](C)C(=O)N[C@H](C(=O)O)Cc2ccc(OC[C@H](O)CN)c(c2)-c2cc1cc(OC[C@H](O)CN)c2O [Example 63, (8S,11S,14S)-3,17-bis[(2R)-3-amino-2-hydroxy-propoxy]-14-[[(2S)-2-[[4-(amino-methyl)-6-(4-tert-butylphenyl)-2-methyl-pyridine-3-carbonyl]amino]-3-(sulfamoylamino)-propanoyl]-methyl-amino]-18-hydroxy-11-methyl-10,13-dioxo-9,12-diazatri-cyclo[13.3.1.12,6]icosa-1(18),2(20),3,5,15(19), 16-hexaene-8-carboxylic acid] | – | – | – | – | –
3 µM (≈ 3.11 µg/mL) | 0.75 µM (≈ 0.779 µg/mL) | 1 µM (≈ 1.04 µg/mL) | 16 µM (≈ 16.6 µg/mL) | 16 µM (≈ 16.6 µg/mL) | – | – | – | – | Cc1cc(C(C)(C)C)cc(O)c1-c1nc(C)c(C(=O)N[C@@H](CNS(N)(=O)=O)C(=O)N(C)[C@@H]2C(=O)N[C@@H](C)C(=O)N[C@H](C(=O)O)Cc3ccc(OC[C@H](O)CN)c(c3)-c3cc2cc(OC[C@H](O)CN)c3O)c(N)n1 [Example 48, (8S,11S,14S)-14-[[(2S)-2-[[4-amino-2-(4-tert-butyl-2-hydroxy-6-methyl-phenyl)-6-methyl-pyrimidine-5-carbonyl]amino]-3-(sulfamoylamino)-propanoyl]-methyl-amino]-3,17-bis[(2R)-3-amino-2-hydroxy-propoxy]-18-hydroxy-11-methyl-10,13-dioxo-9,12-diazatri-cyclo[13.3.1.12,6]icosa-1(18),2(20),3,5,15(19), 16-hexaene-8-carboxylic acid] | – | – | – | – | –
– | – | – | – | – | > 128 µM | 0.6 µM (≈ 0.512 µg/mL) | 1.3 µM (≈ 1.11 µg/mL) | > 96 µM | CCCCCOc1ccc(-c2nc(C)c(C(=O)N[C@@H](CCN)C(=O)N(C)[C@@H]3C(=O)N[C@@H](C)C(=O)N[C@H](C(=O)O)Cc4ccc(O)c(c4)-c4cc3ccc4OCCN)c(C)n2)cc1 (racemic) [Example 648] | – | – | – | – | –
8 µM (≈ 8.42 µg/mL) | 0.5 µM (≈ 0.526 µg/mL) | 1 µM (≈ 1.05 µg/mL) | 16 µM (≈ 16.8 µg/mL) | 16 µM (≈ 16.8 µg/mL) | – | – | – | – | Cc1nc(-c2c(O)cc3c(c2O)CCC3(C)C)nc(N)c1C(=O)N[C@@H](CNS(N)(=O)=O)C(=O)N(C)[C@@H]1C(=O)N[C@@H](C)C(=O)N[C@H](C(=O)O)Cc2ccc(OC[C@H](O)CN)c(c2)-c2cc1cc(OC[C@H](O)CN)c2O [Example 52, (8S,11S,14S)-18-hydroxy-11-methyl-14-[methyl-[(2S)-2-[[4-amino-2-(4,6-dihydroxy-1,1-dimethyl-indan-5-yl)-6-methyl-pyrimidine-5-carbonyl]amino]-3-(sulfamoylamino)-propanoyl]amino]-10,13-dioxo-3,17-bis[(2R)-3-amino-2-hydroxy-propoxy]-9,12-diazatricyclo-[13.3.1.12,6]icosa-1(18),2(20),3,5,15(19), 16-hexaene-8-carboxylic acid] | – | – | – | – | –
